Source: PubChem BioAssay (NCI)
“And” between values parts separate entries of the source, which are not always exact repeats. Identical values can stand only once.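 All cell lines were grown in 96-well plates and treated with compound for 48 hours. At the GI50, growth is halved. TGI denotes the concentration required for complete inhibition of growth.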

Columns and labels:
Test in all cases: inhibition of tumour cell growth, NCI panel, 48 h
A498 renal = test system: A498 renal
DLD-1 colon = test system: DLD-1 colon
DMS 273 small cell lung = test system: DMS 273 small cell lung
HCC-2998 colon = test system: HCC-2998 colon
HCT-116 colon = test system: HCT-116 colon
HT29 colon = test system: HT29 colon
M14 melanoma = test system: M14 melanoma
MDA-MB-231 breast = test system: MDA-MB-231 breast
SK-MEL-2 melanoma = test system: SK-MEL-2 melanoma
SNB-19 CNS = test system: SNB-19 CNS

**Q.** With O=C1NC2(CCCCC2)C(=O)N1CCN(CCCl)CCCl as the molecule, how does the GI50 (A498 renal) read?
**A.** > 25 µM

**Q.** What about the TGI (A498 renal) of the same molecule?
**A.** > 250 µM

**Q.** What about the TGI (DLD-1 colon) of the same molecule?
**A.** > 250 µM

**Q.** What about the TGI (DMS 273 small cell lung) of the same molecule?
**A.** > 223 µM

**Q.** And the GI50 (HCC-2998 colon)?
**A.** > 25 µM

**Q.** And the TGI (HCC-2998 colon)?
**A.** > 250 µM

**Q.** What about the GI50 (HCT-116 colon) of the same molecule?
**A.** > 25 µM

**Q.** What about the TGI (HCT-116 colon) of the same molecule?
**A.** > 250 µM

**Q.** And the GI50 (HT29 colon)?
**A.** > 25 µM

**Q.** And the TGI (HT29 colon)?
**A.** > 250 µM

**Q.** And the TGI (M14 melanoma)?
**A.** > 25 µM

**Q.** What about the TGI (MDA-MB-231 breast) of the same molecule?
**A.** > 25 µM

**Q.** And the GI50 (SK-MEL-2 melanoma)?
**A.** 13.3 µM

**Q.** And the TGI (SK-MEL-2 melanoma)?
**A.** 25 µM and > 141 µM

**Q.** And the GI50 (SNB-19 CNS)?
**A.** > 25 µM

**Q.** And the TGI (SNB-19 CNS)?
**A.** > 250 µM

**Q.** With COc1cc2c(c(OC)c1OC)-c1ccc(SC)c(=O)cc1[C@@H](NC(=O)C(F)(F)F)CC2 as the molecule, how does the TGI (A498 renal) read?
**A.** 1.86 µM

**Q.** And the TGI (DLD-1 colon)?
**A.** > 100 µM

**Q.** And the TGI (DMS 273 small cell lung)?
**A.** > 100 µM

**Q.** And the TGI (HCC-2998 colon)?
**A.** > 71.3 µM

**Q.** And the TGI (HCT-116 colon)?
**A.** 4.42 µM

**Q.** What about the TGI (HT29 colon) of the same molecule?
**A.** 0.182 µM

**Q.** And the TGI (M14 melanoma)?
**A.** 42.5 µM

**Q.** What about the TGI (MDA-MB-231 breast) of the same molecule?
**A.** > 100 µM

**Q.** And the TGI (SNB-19 CNS)?
**A.** > 100 µM

**Q.** Which TGI (A498 renal) does the source give for COc1ccc(O)cc1C(O)c1ccccc1 (stereo not given) here?
**A.** > 100 µM

**Q.** What about the TGI (DLD-1 colon) of the same molecule?
**A.** > 100 µM

**Q.** What about the TGI (DMS 273 small cell lung) of the same molecule?
**A.** > 100 µM

**Q.** What about the TGI (HCC-2998 colon) of the same molecule?
**A.** > 100 µM

**Q.** And the TGI (HCT-116 colon)?
**A.** > 100 µM

**Q.** What about the TGI (HT29 colon) of the same molecule?
**A.** > 100 µM

**Q.** What about the TGI (M14 melanoma) of the same molecule?
**A.** > 100 µM

**Q.** What about the TGI (SK-MEL-2 melanoma) of the same molecule?
**A.** > 100 µM

**Q.** What about the TGI (SNB-19 CNS) of the same molecule?
**A.** > 100 µM

**Q.** What does the source list for CCCCCCCCCCCCCCCC(=O)OCCOCCOCCOCCOCCOC(=O)CCCCCCCCCCCCCCC?
**A.** TGI (A498 renal): > 100 µM; TGI (DLD-1 colon): > 100 µM; TGI (DMS 273 small cell lung): > 100 µM; TGI (HCC-2998 colon): > 100 µM; TGI (HCT-116 colon): > 100 µM; TGI (HT29 colon): > 100 µM; TGI (M14 melanoma): > 100 µM; TGI (SK-MEL-2 melanoma): > 100 µM; TGI (SNB-19 CNS): > 100 µM

**Q.** With C[N+](C)(C)c1cc[c]([Sn]([c]2ccc([N+](C)(C)C)cc2)([c]2ccc([N+](C)(C)C)cc2)[c]2ccc([N+](C)(C)C)cc2)cc1 as the molecule, how does the GI50 (A498 renal) read?
**A.** > 100 µM

**Q.** And the TGI (A498 renal)?
**A.** > 100 µM

**Q.** What about the GI50 (DLD-1 colon) of the same molecule?
**A.** > 100 µM

**Q.** What about the TGI (DLD-1 colon) of the same molecule?
**A.** > 100 µM

**Q.** And the GI50 (DMS 273 small cell lung)?
**A.** > 100 µM

**Q.** And the TGI (DMS 273 small cell lung)?
**A.** > 100 µM

**Q.** And the GI50 (HCC-2998 colon)?
**A.** > 100 µM

**Q.** And the TGI (HCC-2998 colon)?
**A.** > 100 µM

**Q.** And the GI50 (HCT-116 colon)?
**A.** > 100 µM

**Q.** What about the TGI (HCT-116 colon) of the same molecule?
**A.** > 100 µM

**Q.** What about the GI50 (HT29 colon) of the same molecule?
**A.** > 100 µM

**Q.** What about the TGI (HT29 colon) of the same molecule?
**A.** > 100 µM

**Q.** And the GI50 (M14 melanoma)?
**A.** > 100 µM

**Q.** What about the TGI (M14 melanoma) of the same molecule?
**A.** > 100 µM

**Q.** And the GI50 (SK-MEL-2 melanoma)?
**A.** > 100 µM

**Q.** What about the TGI (SK-MEL-2 melanoma) of the same molecule?
**A.** > 100 µM

**Q.** What about the GI50 (SNB-19 CNS) of the same molecule?
**A.** > 100 µM

**Q.** And the TGI (SNB-19 CNS)?
**A.** > 100 µM

**Q.** CC1C=CC(C(N)C(=O)O)O1 (stereo not given) was tested. Which TGI (A498 renal) did it give?
**A.** > 100 µM

**Q.** What about the TGI (DLD-1 colon) of the same molecule?
**A.** > 100 µM

**Q.** And the TGI (DMS 273 small cell lung)?
**A.** > 100 µM

**Q.** What about the TGI (HCC-2998 colon) of the same molecule?
**A.** > 100 µM

**Q.** What about the TGI (HCT-116 colon) of the same molecule?
**A.** > 100 µM

**Q.** What about the TGI (HT29 colon) of the same molecule?
**A.** > 100 µM

**Q.** What about the TGI (M14 melanoma) of the same molecule?
**A.** > 100 µM

**Q.** And the TGI (SK-MEL-2 melanoma)?
**A.** > 100 µM

**Q.** What about the TGI (SNB-19 CNS) of the same molecule?
**A.** > 100 µM

**Q.** For CCOC(=N)CC(=O)Nc1ccccc1, which TGI (A498 renal) is on record?
**A.** > 46.4 µM

**Q.** And the TGI (DLD-1 colon)?
**A.** > 46.4 µM

**Q.** What about the TGI (DMS 273 small cell lung) of the same molecule?
**A.** > 46.4 µM

**Q.** And the TGI (HCC-2998 colon)?
**A.** > 31.6 µM

**Q.** What about the TGI (HCT-116 colon) of the same molecule?
**A.** > 46.4 µM

**Q.** What about the TGI (HT29 colon) of the same molecule?
**A.** > 46.4 µM

**Q.** What about the TGI (M14 melanoma) of the same molecule?
**A.** > 46.4 µM

**Q.** What about the TGI (SK-MEL-2 melanoma) of the same molecule?
**A.** > 31.6 µM

**Q.** And the TGI (SNB-19 CNS)?
**A.** > 100 µM

**Q.** For N#C/C(=C1\OC(=N)C(c2ccccc2)C1=O)c1ccccc1 (stereo not given), which TGI (A498 renal) is on record?
**A.** > 100 µM

**Q.** And the TGI (DLD-1 colon)?
**A.** 39.1 µM

**Q.** What about the TGI (DMS 273 small cell lung) of the same molecule?
**A.** > 100 µM

**Q.** What about the TGI (HCC-2998 colon) of the same molecule?
**A.** > 100 µM

**Q.** What about the TGI (HCT-116 colon) of the same molecule?
**A.** 31.6 µM

**Q.** What about the TGI (HT29 colon) of the same molecule?
**A.** 57.7 µM

**Q.** What about the TGI (M14 melanoma) of the same molecule?
**A.** > 59.5 µM

**Q.** And the TGI (SK-MEL-2 melanoma)?
**A.** > 100 µM

**Q.** And the TGI (SNB-19 CNS)?
**A.** > 100 µM

**Q.** C/C=C/C(=O)[O-].C/C=C/C(=O)[O-].N.N.N.N.[Co+3].[O-][Cl+3]([O-])([O-])[O-] was tested. Which GI50 (A498 renal) did it give?
**A.** > 100 µM

**Q.** And the TGI (A498 renal)?
**A.** > 100 µM

**Q.** What about the GI50 (DLD-1 colon) of the same molecule?
**A.** > 100 µM

**Q.** And the TGI (DLD-1 colon)?
**A.** > 100 µM

**Q.** What about the GI50 (DMS 273 small cell lung) of the same molecule?
**A.** > 100 µM

**Q.** And the TGI (DMS 273 small cell lung)?
**A.** > 100 µM

**Q.** What about the GI50 (HCC-2998 colon) of the same molecule?
**A.** > 100 µM

**Q.** What about the TGI (HCC-2998 colon) of the same molecule?
**A.** > 100 µM

**Q.** What about the GI50 (HCT-116 colon) of the same molecule?
**A.** > 100 µM

**Q.** What about the TGI (HCT-116 colon) of the same molecule?
**A.** > 100 µM

**Q.** And the GI50 (HT29 colon)?
**A.** > 100 µM

**Q.** What about the TGI (HT29 colon) of the same molecule?
**A.** > 100 µM

**Q.** What about the GI50 (M14 melanoma) of the same molecule?
**A.** > 100 µM

**Q.** And the TGI (M14 melanoma)?
**A.** > 100 µM

**Q.** What about the GI50 (SK-MEL-2 melanoma) of the same molecule?
**A.** > 100 µM

**Q.** What about the TGI (SK-MEL-2 melanoma) of the same molecule?
**A.** > 100 µM

**Q.** And the GI50 (SNB-19 CNS)?
**A.** > 100 µM

**Q.** What about the TGI (SNB-19 CNS) of the same molecule?
**A.** > 100 µM

**Q.** What does the source list for Cc1ccc(N=C2N=C(N3CC(C)OC(C)C3)c3ccccc32)cc1 (stereo not given)?
**A.** TGI (A498 renal): 90.1 µM; TGI (DLD-1 colon): > 100 µM; TGI (DMS 273 small cell lung): 77.1 µM; TGI (HCC-2998 colon): 79.5 µM; TGI (HCT-116 colon): 48.8 µM; TGI (HT29 colon): 65 µM; TGI (M14 melanoma): 56.5 µM; TGI (SK-MEL-2 melanoma): 70.4 µM; TGI (SNB-19 CNS): > 100 µM
